From patent publication US20240383870A1, “HETEROCYCLIC ALDEHYDE TRAPPING COMPOUNDS AND USES THEREOF” (Aldeyra Therapeutics, Inc., priority 2021, published 2024) come the findings set out here.

What all share (format): in vivo
One assay has as its system KC. Kind of assay: Acute LPS-induced sepsis in C57BL/6 mice: KC cytokine detection assay. Conditions: 200 mpk PO; LPS-challenged mice, plasma at 6.5 h; unpaired t-test vs vehicle. From the text:
FIG. 20 is a graph showing the results of a KC cytokine detection assay in samples collected from mouse subjects after administration of compounds of the present disclosure.
(§1) The primary objective of this study was to collect plasma samples of lipopolysaccharide (LPS) challenged C57BL/6 mice after dose of test compounds to provide a cytokine profile as impacted by prophylactic treatments. This study models acute sepsis, which is a systemic inflammatory syndrome initiated by Gram-negative and Gram-positive bacteria and fungi which infect the lungs, abdomen, bloodstream, and renal or genitourinary tracts. Sepsis patients ultimately die of multiorgan failure which is caused by extensive tissue hypo-oxygenation due to ongoing microvascular leakage, disseminated intravascular coagulation, compromised energy production, and metabolic alterations. Sepsis is characterized by an early systemic inflammatory response phase featuring symptoms, such as tachycardia, fever, hyperventilation, and activation of the complement and coagulation cascades. However, it is now appreciated that a compensatory anti-inflammatory response phase follows, characterized by neuroendocrine-mediated immunosuppression. Since these processes are the result of interaction between cells of inflammation and organs, investigation of the treatment of this syndrome requires the use of intact animal models. The use of ten mice per group allows useful statistical modelling of the results.
(§2) For the data shown in Table 2A, 103 mice (female, 18-22 gram, C57BL/6) were purchased from ENVIGO. The mice were housed in 20 cages of 5 mice per cage with 1 cage of 3 mice as extra. The cages had filter tops and autoclaved bedding, and the animals were placed in quarantine with daily inspection. The treatment groups are detailed in Table 2A below. 10 mice were included in each group. The mice were dosed by oral gavage (PO) at 10 ml/kg as per the table below. MC=methyl cellulose.
(§3) For the data shown in Table 2B, 185 mice (female, 18-22 gram, C57BL/6) were purchased from ENVIGO. The mice were housed in 37 cages of 5 mice per cage. The cages had filter tops and autoclaved bedding, and the animals were placed in quarantine with daily inspection. The treatment groups are detailed in Table 2B below. 10 mice were included in each group. The mice were dosed by oral gavage (P0) at 10 ml/kg as per the table below. MC=methyl cellulose.
(§4) At T=0 h, the mice were dosed with one of the test compounds as described in the above table.
(§5) At T=0.5 h, the mice were injected IP with 1.5 mg/kg […] (Sigma).
(§6) At T=6.5 h, all mice were anesthetized and exsanguinated into pre-chilled EDTA-treated tubes. The blood was processed to plasma which was stored in labeled 0.5 polypropylene snap-cap tubes (0.5 mL Eppendorf Safe-Lock Tubes (Fisher Scientific) at −80° C.
(§7) Preparation of vehicle: 1.0 gram of methyl cellulose (Sigma) was dissolved in 200 mL of water (USP purified) to make a solution of 0.5% methyl cellulose in water. Preparation of LPS solution: 6 mg of LPS (from Escherichia Coli 055:B5, Cat #L2880, Sigma Lot #057m4013) was dissolved in 20 ml of saline to give a LPS solution of 0.3 mg/ml. All mice were injected with 5 ml/kg (1.5 mg/kg) at the scheduled time by intraperitoneal injection.
(§8) A 32-plex cytokine panel was obtained from Eve Technologies. Each cytokine was assessed based against a 7 point curve range in duplicate. The average of the two replicate analyses was used for statistics. Unpaired t-tests were performed using Excel™ contrasting vehicle against each treatment group. One star indicates P<0.05. Two stars indicates P<0.01. Three stars indicates P<0.001. Four stars indicates P<0.0001. Most, but not all, statistically significant results are indicated with star(s).

Another assay has as its system IFNγ. Nature of the assay: Acute LPS-induced sepsis in C57BL/6 mice: IFNγ cytokine detection assay. Conditions: 75 mpk PO; LPS-challenged mice, plasma at 6.5 h; unpaired t-test vs vehicle.
Another assay relates to IL-17. Nature of the assay: Acute LPS-induced sepsis in C57BL/6 mice: IL-17 cytokine detection assay. The following applies: 75 mpk PO; LPS-challenged mice, plasma at 6.5 h; unpaired t-test vs vehicle.
Source text: FIG. 19 is a graph showing the results of an IL-17 cytokine detection assay in samples collected from mouse subjects after administration of compounds of the present disclosure.
as §1
(§9) For the data shown in Table 2A, 103 mice (female, 18-22 gram, C57BL/6) were purchased from ENVIGO. The mice were housed in 20 cages of 5 mice per cage with 1 cage of 3 mice as extra. The cages had filter tops and autoclaved bedding, and the animals were placed in quarantine with daily inspection. The treatment groups are detailed in Table 2A below. 10 mice were included in each group. […] MC=methyl cellulose.
as §3, §4, §5
At T=6.5 h, all mice were anesthetized and exsanguinated into pre-chilled EDTA-treated tubes. […]
(§10) A 32-plex cytokine panel was obtained from Eve Technologies. Each cytokine was assessed based against a 7 point curve range in duplicate. […]

A further assay deals with M-CSF (CSF1). Kind of assay: Acute LPS-induced sepsis in C57BL/6 mice: M-CSF (CSF1) cytokine detection assay. Conditions: LPS-challenged mice, plasma at 6.5 h, unpaired t-test vs vehicle.
Source text: FIG. 24 is a graph showing the results of an M-CSF (CSF1) cytokine detection assay in samples collected from mouse subjects after administration of compounds of the present disclosure. M-CSF causes hematopoietic stem cells to differentiate into macrophages.
as §1, §2, §3, §4, §5, §6, §7, §8

For assay [1], the system named is leukemia inhibitory factor (LIF). Nature of the assay: Acute LPS-induced sepsis in C57BL/6 mice: leukemia inhibitory factor (LIF) cytokine detection assay. The following applies: 75 mpk PO; LPS-challenged mice, plasma at 6.5 h; unpaired t-test vs vehicle.
Source text: FIG. 21 is a graph showing the results of a leukemia inhibitory factor (LIF) cytokine detection assay in samples collected from mouse subjects after administration of compounds of the present disclosure. LIF is an interleukin 6 class cytokine that affects cell growth by inhibiting differentiation.
as §1, §2, §3, §4, §5, §6, §7, §10

Another assay has as its system IL-10. Kind of assay: Acute LPS-induced sepsis in C57BL/6 mice: IL-10 cytokine detection assay. The following applies: LPS-challenged mice, plasma at 6.5 h, unpaired t-test vs vehicle.
The subject of the next assay is IL-13. Nature of the assay: Acute LPS-induced sepsis in C57BL/6 mice: IL-13 cytokine detection assay. The following applies: LPS-challenged mice, plasma at 6.5 h, unpaired t-test vs vehicle.
Source text: FIG. 17 is a graph showing the results of an IL-13 cytokine detection assay in samples collected from mouse subjects after administration of compounds of the present disclosure.
as §1, §2, §3, §4, §5, §6, §7
A 32-plex cytokine panel was obtained from Eve Technologies. Each cytokine was assessed based against a 7 point curve range in duplicate. The average of the two replicate analyses was used for statistics. […]

Another assay deals with IL-12(p70). Kind of assay: Acute LPS-induced sepsis in C57BL/6 mice: IL-12(p70) cytokine detection assay. Conditions: LPS-challenged mice, plasma at 6.5 h, unpaired t-test vs vehicle.
Source text: FIG. 16 is a graph showing the results of an IL-12(p70) cytokine detection assay in samples collected from mouse subjects after administration of compounds of the present disclosure.
as §1, §9, §3, §4, §5, §6, §7
A 32-plex cytokine panel was obtained from Eve Technologies. Each cytokine was assessed based against a 7 point curve range in duplicate. The average of the two replicate analyses was used for statistics. Unpaired t-tests were performed using Excel™ contrasting vehicle against each treatment group. One star indicates P<0.05. […]

The subject of a further assay is IL-3. Nature of the assay: Acute LPS-induced sepsis in C57BL/6 mice: IL-3 cytokine detection assay. Conditions: 200 mpk PO; LPS-challenged mice, plasma at 6.5 h; unpaired t-test vs vehicle.
The next assay has as its system MCP-1(CCL2). Nature of the assay: Acute LPS-induced sepsis in C57BL/6 mice: MCP-1(CCL2) cytokine detection assay. Conditions: 200 mpk PO; LPS-challenged mice, plasma at 6.5 h; unpaired t-test vs vehicle.
For the next assay, the system named is IL-9. Nature of the assay: Acute LPS-induced sepsis in C57BL/6 mice: IL-9 cytokine detection assay. The following applies: 125 mpk PO; LPS-challenged mice, plasma at 6.5 h; unpaired t-test vs vehicle.
Source text: FIG. 13 is a graph showing the results of an IL-9 cytokine detection assay in samples collected from mouse subjects after administration of compounds of the present disclosure.
as §1
For the data shown in Table 2A, 103 mice (female, 18-22 gram, C57BL/6) were purchased from ENVIGO. The mice were housed in 20 cages of 5 mice per cage with 1 cage of 3 mice as extra. The cages had filter tops and autoclaved bedding, and the animals were placed in quarantine with daily inspection. The treatment groups are detailed in Table 2A below. 10 mice were included in each group. The mice were dosed by oral gavage (PO) at 10 ml/kg as per the table below. MC=methyl cellulose. […]
as §10

As for `CC(C)(O)c1cc(F)c(F)cc1N` [Compound I-27, 2-(2-Amino-4,5-difluorophenyl) propan-2-ol], the “KC: significant cytokine change vs. vehicle” value with KC is reported as “* (One star indicates P<0.05)”.
For `Cc1cnc(C(C)(C)O)c(N)c1` [Compound I-32, 2-(3-Amino-5-methylpyridin-2-yl) propan-2-ol], in the assay with IFNγ, the “IFNy: significant cytokine change vs. vehicle” value was “**** (Four stars indicates P<0.0001)”. Besides, in the assay with IL-17, the “IL-17: significant cytokine change vs. vehicle” value was “* (One star indicates P<0.05)”. In addition, the “M-CSF: significant cytokine change vs. vehicle” value in the assay with M-CSF (CSF1) (75 mpk PO) is “**** (Four stars indicates P<0.0001)”. For the same compound, the “LIF: significant cytokine change vs. vehicle” value in [1] is given as “**** (Four stars indicates P<0.0001)”. The “IL-10: significant cytokine change vs. vehicle” value in the assay with IL-10 (75 mpk PO) was “* (One star indicates P<0.05)”. The “IL-13: significant cytokine change vs. vehicle” value in the assay with IL-13 (75 mpk PO) is given as “*** (Three stars indicates P<0.001)”. Also, in the assay on IL-12(p70) (75 mpk PO), the “IL-12 (p70): significant cytokine change vs. vehicle” value is recorded as “* (One star indicates P<0.05)”.
`CC(O)(c1sc2ccc(C(F)(F)F)cc2c1N)C(F)(F)F` (stereo not drawn) [Compound I-16, 2-(3-Amino-5-(trifluoromethyl)benzo[b]thiophen-2-yl)-1,1,1-trifluoropropan-2-ol]: the “IL-3: significant cytokine change vs. vehicle” value in the assay on IL-3 is “* (One star indicates P<0.05)”. Further, in the assay on M-CSF (CSF1) (200 mpk PO), the “M-CSF: significant cytokine change vs. vehicle” value is “**** (Four stars indicates P<0.0001)”. The “IL-10: significant cytokine change vs. vehicle” value in the assay on IL-10 (200 mpk PO) is “** (Two stars indicates P<0.01)”. The “MCP-1: significant cytokine change vs. vehicle” value in the assay on MCP-1(CCL2) was “* (One star indicates P<0.05)”.
For `CC(C)(O)c1cc2c(cc1N)OCCO2` [Compound I-26, 2-(7-Amino-2,3-dihydrobenzo[b] [1,4]dioxin-6-yl) propan-2-ol], the “IL-9: significant cytokine change vs. vehicle” value in the assay with IL-9 is “* (One star indicates P<0.05)”.
Take `CC(C)(O)c1cc(Cl)c(Cl)cc1N` [Compound I-28, 2-(2-Amino-4,5-dichlorophenyl) propan-2-ol]: the “KC: significant cytokine change vs. vehicle” value with KC is given as “*** (Three stars indicates P<0.001)”. In addition, the “IL-10: significant cytokine change vs. vehicle” value in the assay on IL-10 (200 mpk PO) was “* (One star indicates P<0.05)”. For the same compound, in the assay on IL-13 (200 mpk PO), the “IL-13: significant cytokine change vs. vehicle” value is “* (One star indicates P<0.05)”. For the same compound, the “MCP-1: significant cytokine change vs. vehicle” value in the assay with MCP-1(CCL2) is given as “* (One star indicates P<0.05)”. Besides, the “IL-12 (p70): significant cytokine change vs. vehicle” value in the assay with IL-12(p70) (200 mpk PO) was “* (One star indicates P<0.05)”.
